Experimental data as given in US20090099167A1, “Organic compounds” (Novartis Institutes for Biomedical Research, priority 2004, published 2009).

What follows are compounds tested against T1, Tek (Homo sapiens, UniProt Q02763) (assay: Tek kinase inhibition, GST-fused kinase domain). Conditions: Table 5; read-out: Tek, IC50 class.
T1 construct: N-terminally GST-fused (pAcG1, Pharmingen) KDR, Flt-1, Flk-1, Tek and PDGFR-β kinase domains are obtained from ProQinase, Freiburg, Germany; host or cells: Sf9 or High Five (baculovirus)
T1 sequence (Q02763 824-1096 limits assumed, species assumed): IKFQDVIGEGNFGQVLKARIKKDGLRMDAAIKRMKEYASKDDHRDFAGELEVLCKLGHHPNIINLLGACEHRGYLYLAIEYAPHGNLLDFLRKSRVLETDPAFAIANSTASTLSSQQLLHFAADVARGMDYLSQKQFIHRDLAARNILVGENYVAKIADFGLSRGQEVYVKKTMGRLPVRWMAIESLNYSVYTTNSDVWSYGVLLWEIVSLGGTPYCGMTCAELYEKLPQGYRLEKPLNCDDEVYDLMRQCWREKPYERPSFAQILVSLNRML
Type: biochemical
Source text: The inhibition of IGF-1R and Ins-R can be determined as follows: The baculovirus donor vector pfbgx3IGFIRcd is used to generate a recombinant baculovirus that expresses the amino acid region 950-1337 of the mature peptide cytoplasmic domain of the human IGF-IR. To generate the cDNA fragment encoding the amino acid region 919-1343 of the intra-cytoplasmic kinase domain of the human insulin receptor, pC5hInsR is used. The fragments of the human IGF-IR and Ins-R are cloned, expressed and small-scale purified as a factor Xa-cleavable glutathione-S-transferase (GST)-fusion protein using the Bac-to-Bac™ system (GIBCO BRL) of recombinant baculovirus generation. Virus containing media is collected from the transfected cell culture and used for infection to increase its titer. Virus containing media obtained after two rounds of infection is used for large-scale protein expression. Cell extracts are prepared and loaded onto a glutathione-Sepharose (Pharmacia) column. After washing, the GST-tagged proteins are then eluted with a glutathione-containing buffer. Purified protein is stored at −70° C. in elution buffer. Tyrosine protein kinase assays with purified GST-IGF-1R and GST-ins-R are carried in a final volume of 30 μl containing 20 mM Tris-HCl, pH 7.6, 10 mM MgCl2, 0.01 mM Na3VO4, 1% DMSO, 1 mM DTT, 3 μg/ml poly(Glu,Tyr) 4:1 and 10 μM ATP (γ-[^33P]-ATP 0.1 μCi). The assay is performed in 96-well plates at ambient temperature for 20 min and terminated by addition of 25 μl 0.05 M EDTA pH 7.0. An aliquot of 40 μl is spotted with a multichannel dispenser on Whatman P81 membranes mounted in a Millipore Microtiter filter manifold connected to a low vacuum source. After elimination of liquid, the membrane is transferred to a sequence of 4 washing baths containing 0.5% H3PO4 and one with EtOH (shaking incubation for 10 min each), dried, mounted onto a Hewlett Packard TopCount manifold added 10 μl Microscint® and counted. Compounds of formula (I) show up to 90% inhibition of Ins-R at 10,000 nM, preferably between 60-90% inhibition. The inhibition of Tek can be determined as follows: The procedure of the expression, purification and assay these kinases has been described. Fabbro et al., Pharmacol. Ther. 82(2-3) 293-301 (1999). In brief, the glutathione S-transferase (GST) gene from the pAcG1 vector (Pharmingen) is excised with EcoRV and EcoRI and inserted into the cloning site of the Fast-Bac baculoviral vector (GIBCO) creating a 5530 bp vector with N-terminal cloning sites derived from the pAcG1 fusion vector (FBG0). The C-terminal cloning site may be any cloning site (from the Fast-Bac vector) downstream of the N-terminal cloning site used. N-terminally GST-fused (pAcG1, Pharmingen) KDR, Flt-1, Flk-1, Tek and PDGFR-β kinase domains are obtained from ProQinase, Freiburg, Germany. Tek is recloned into the FBG1 vector by EcoRI excision and ligation into EcoRI digested FBG1 (FBG1-Tek). The coding sequences for the whole cytoplasmic domain of c-Kit (aa 544-976) and c-Fms (aa 538-972) are amplified by PCR from human uterus and from human bone marrow cDNA libraries (Clontech), respectively. The amplified DNA fragments are fused to GST by cloning them into FBG1 as BamHI-EcoRI insertions, to yield FBG1-c-Kit and FBG1-c-Fms. Tek is recloned into the FBG0 transfer vector by EcoRI excision and ligation into EcoRI digested FBG0 (FBG-Tie2/Tek). FGFR-1 and c-met kinase domains are obtained by PCR from human A431 cells. N-terminal primers contain an overhanging EcoRI site, while C-terminal primers contain a XhoI site to aid cloning into the transfer vectors. After digestion of both the PCR fragments and FBG0 the cleavage products are gel-purified and ligated together to form the kinase constructs (FBG-Met, FBG-FGFR-1).
Viruses for each of the kinases are made according to the protocol supplied by GIBCO. […]

Row | Structure (SMILES) | IC50
1 | Cc1nc2c(-c3cccc(N4CCN(CCO)CC4)c3)cnn2c(N)c1-c1ccc(F)c(Cl)c1 [Example 100, 2-(4-{3-[7-Amino-6-(3-chloro-4-fluoro-phenyl)-5-methyl-pyrazolo[1,5-a]pyrimidin-3-yl]-phenyl}-piperazin-1-yl)-ethanol] | > 10 µM
2 | Cc1nc2c(-c3cccc(N4CCN(CCO)CC4)c3)cnn2c(N)c1-c1ccc(F)c(F)c1 [Example 101, 2-(4-{3-[7-Amino-6-(3,4-difluoro-phenyl)-5-methyl-pyrazolo[1,5-a]pyrimidin-3-yl]-phenyl}-piperazin-1-yl)-ethanol] | > 10 µM
3 | Cc1nc2c(-c3cccc(N4CCC(N5CCCC5)CC4)c3)cnn2c(N)c1-c1cccc(Cl)c1 [Example 102, 6-(3-Chloro-phenyl)-5-methyl-3-[3-(4-pyrrolidin-1-yl-piperidin-1-yl)-phenyl]-pyrazolo[1,5-a]pyrimidin-7-ylamine] | 1 to 10 µM
4 | Cc1nc2c(-c3cccc(N4CCC(N5CCCC5)CC4)c3)cnn2c(N)c1-c1ccc(F)cc1 [Example 103, 6-(4-Fluoro-phenyl)-5-methyl-3-[3-(4-pyrrolidin-1-yl-piperidin-1-yl)-phenyl]-pyrazolo[1,5-a]pyrimidin-7-ylamine] | > 10 µM
5 | Cc1nc2c(-c3cccc(N4CC[N+](C)([O-])CC4)c3)cnn2c(N)c1-c1ccc(F)cc1 [Example 106, 6-(4-Fluoro-phenyl)-5-methyl-3-[3-(4-methyl-4-oxy-piperazin-1-yl)-phenyl]-pyrazolo[1,5-a]pyrimidin-7-ylamine] | > 10 µM
6 | Cc1nc2c(-c3cccc([N+]4([O-])CC[N+](C)([O-])CC4)c3)cnn2c(N)c1-c1ccc(F)cc1 (stereo not drawn) [Example 107, 6-(4-Fluoro-phenyl)-5-methyl-3-[3-(4-methyl-1,4-dioxy-piperazin-1-yl)-phenyl]-pyrazolo[1,5-a]pyrimidin-7-ylamine] | > 10 µM
